Test systems include SF-295 CNS; HL-60(TB) leukemia; HCT-116 colon; RPMI-8226 leukemia; OVCAR-3 ovarian; SN12C renal; PC-3 prostate; TK-10 renal; DU-145 prostate; HS 578T breast.
Holding throughout (test): growth of human tumour cells (NCI), 48 h

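Test compounds were applied to cells in 96-well plates for 48 hours at 5 doses. Abbreviation: GI50, concentration required for 50% inhibition of growth. The concentration for full growth arrest is given as TGI.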

For the compound `COc1cc2c(cc1O)N=C[C@@H]1CCC(O)N1C2=O` (mixture of isomers), the TGI in the assay with SF-295 CNS amounted to 5.77 µM; in the assay with HL-60(TB) leukemia, 11.1 µM; with HCT-116 colon, 34 µM; in the assay on RPMI-8226 leukemia it was 2.39 µM; in the assay with OVCAR-3 ovarian, 1.49 µM; in the assay on SN12C renal, 19.1 µM.

As for `O=C1NC(=O)C2(CCc3ccc(N(CCCl)CCCl)cc32)N1` (centres undefined), the TGI is more than 61.5 µM in the assay on SF-295 CNS; 9.75 µM with HL-60(TB) leukemia; 31.7 µM in the assay with HCT-116 colon; 99.2 µM with RPMI-8226 leukemia; 41.4 µM with OVCAR-3 ovarian; more than 100 µM in the assay with SN12C renal.

On to `COc1ccc2oc3c(ccc[n+]3C)c(=O)c2c1`, for which the TGI with SF-295 CNS, with HL-60(TB) leukemia, with HCT-116 colon, in the assay with PC-3 prostate, in the assay with OVCAR-3 ovarian and with SN12C renal was more than 100 µM throughout. For the same compound, the TGI with TK-10 renal, with DU-145 prostate and with HS 578T breast was more than 100 µM throughout.

Take `COc1ccc(-c2c(C#N)cnc(N)c2-c2nc3cc(C)c(C)cc3[nH]2)cc1`: the GI50 was 6.41 µM in the assay with SF-295 CNS; 83.6 µM with HL-60(TB) leukemia; 4.63 µM in the assay on HCT-116 colon; 8.86 µM in the assay with PC-3 prostate; 32.5 µM in the assay with RPMI-8226 leukemia; 14.8 µM in the assay on OVCAR-3 ovarian. The GI50 with SN12C renal was 25.4 µM; in the assay with TK-10 renal, 5.94 µM; in the assay on DU-145 prostate, 6.92 µM; in the assay on HS 578T breast, 5.87 µM. The TGI in the assay with SF-295 CNS was 23.4 µM; in the assay on HL-60(TB) leukemia it was more than 100 µM; with HCT-116 colon it was more than 100 µM; in the assay on PC-3 prostate, more than 100 µM; in the assay on RPMI-8226 leukemia it was more than 100 µM; in the assay on OVCAR-3 ovarian, 30.4 µM. Besides, the TGI with SN12C renal is more than 100 µM; in the assay on TK-10 renal, 26.4 µM; in the assay on DU-145 prostate, 23.8 µM; in the assay on HS 578T breast, more than 100 µM.

On to `CCc1ncc(C(C)(O)c2ccccc2)n1Cc1ccccc1` (centres undefined), for which the TGI with SF-295 CNS is more than 100 µM; in the assay with HCT-116 colon, 11 µM; with PC-3 prostate, more than 100 µM; with RPMI-8226 leukemia, more than 100 µM; with OVCAR-3 ovarian, more than 100 µM; in the assay with SN12C renal it was 60.6 µM. Also, the TGI in the assay with TK-10 renal, with DU-145 prostate and in the assay with HS 578T breast was more than 100 µM each time.

Turning to `C/C=C1/C(=O)O[C@]23C=C[C@@H]4C(C(=O)OC)=CO[C@H](O[C@@H]12)[C@@H]43`, the TGI in the assay with SF-295 CNS was determined as 5.24 µM; in the assay with HL-60(TB) leukemia, 3.06 µM; with HCT-116 colon, 1.97 µM; in the assay with RPMI-8226 leukemia it was 3.4 µM; in the assay with OVCAR-3 ovarian, 3.95 µM; with SN12C renal, 4.88 µM.

For `CC(=O)O[C@@H]1CN(S(=O)(=O)c2ccc(C)cc2)C[C@@H]1C1CCCCC1`, the TGI in the assay on SF-295 CNS was more than 100 µM; with PC-3 prostate, 46.4 µM; with RPMI-8226 leukemia, 67.7 µM; in the assay on OVCAR-3 ovarian it was 28.2 µM; in the assay with TK-10 renal it was 41.4 µM; with DU-145 prostate, more than 100 µM. This compound also registered a TGI in the assay on HS 578T breast of 23.7 µM.

In the case of `COc1ccc(/C=C/C(=O)/C=C(/C=C/c2ccc(OC)c(OC)c2OC)OB(F)F)c(OC)c1OC`, the GI50 in the assay on HL-60(TB) leukemia is 0.469 µM; with HCT-116 colon, 0.399 µM; in the assay on PC-3 prostate, 2.82 µM; with RPMI-8226 leukemia, 0.466 µM; with SN12C renal, 2.01 µM; with TK-10 renal it was 9.03 µM. Moreover, in the assay with DU-145 prostate, the GI50 is 3.13 µM. For the same compound, the TGI with HL-60(TB) leukemia is 3.96 µM; in the assay on HCT-116 colon, 3.33 µM; in the assay with PC-3 prostate, more than 100 µM; in the assay on RPMI-8226 leukemia, 2.77 µM; with SN12C renal, more than 100 µM; with TK-10 renal it was more than 100 µM. In addition, the TGI in the assay on DU-145 prostate is more than 100 µM.

For the compound `CC(CNc1nc(Nc2ccc(Cl)c(Cl)c2)nc(C(Cl)(Cl)Cl)n1)N(C)C` (centres undefined), the GI50 in the assay on HL-60(TB) leukemia was 1.69 µM; in the assay on PC-3 prostate it was 1.76 µM; in the assay with RPMI-8226 leukemia, 1.85 µM; in the assay with TK-10 renal, 1.77 µM; in the assay with DU-145 prostate, 1.99 µM. Besides, the TGI with HL-60(TB) leukemia was found to be 3.54 µM; in the assay on PC-3 prostate it was 3.84 µM; in the assay with RPMI-8226 leukemia, 4.58 µM; in the assay on TK-10 renal, 3.27 µM; in the assay on DU-145 prostate, 4.09 µM.

Regarding `Nc1ccc2c(c1)S(=O)(=O)c1cc(N)ccc1-2`, the TGI in the assay with SF-295 CNS, in the assay with HL-60(TB) leukemia, with HCT-116 colon, with PC-3 prostate, in the assay on OVCAR-3 ovarian and in the assay with SN12C renal was more than 100 µM throughout. Further, the TGI with TK-10 renal, with DU-145 prostate and in the assay on HS 578T breast was more than 100 µM in each case.

As for `O=c1ccc2nc3ccc(O)cc3oc-2c1`, the TGI in the assay on SF-295 CNS was more than 100 µM; in the assay on HL-60(TB) leukemia it was 25.4 µM; with HCT-116 colon, more than 100 µM; in the assay on PC-3 prostate, more than 100 µM; with RPMI-8226 leukemia, 30.8 µM; in the assay with OVCAR-3 ovarian it was more than 85.7 µM. Also, the TGI is more than 100 µM with SN12C renal, more than 100 µM with TK-10 renal, 57.5 µM in the assay with DU-145 prostate and more than 60 µM in the assay with HS 578T breast.

For `CC(=O)Nc1nc(C)c(-c2cc3c(c(S(C)(=O)=O)c2)C(=O)N([C@@H](C)C2CC2)C3)s1`, the GI50 with SF-295 CNS is 31.6 µM; with HL-60(TB) leukemia, 17.5 µM; in the assay on HCT-116 colon, 28.3 µM; with PC-3 prostate, 31.2 µM; in the assay on RPMI-8226 leukemia it was 17.6 µM; in the assay on OVCAR-3 ovarian, 30.9 µM. Besides, the GI50 was 28.5 µM in the assay on SN12C renal, 20.7 µM in the assay on TK-10 renal, 29.5 µM in the assay on DU-145 prostate and 18.4 µM in the assay on HS 578T breast. The TGI is more than 100 µM in the assay with SF-295 CNS; more than 100 µM in the assay on HL-60(TB) leukemia; more than 100 µM in the assay on HCT-116 colon; more than 100 µM with PC-3 prostate; 52.9 µM with RPMI-8226 leukemia; more than 100 µM in the assay on OVCAR-3 ovarian. The TGI is more than 100 µM in the assay with SN12C renal, 75.4 µM in the assay with TK-10 renal, more than 100 µM with DU-145 prostate and 64.2 µM with HS 578T breast.

For the compound `Cc1ccc(C(=O)N/N=C(\N=Nc2ccccc2)c2ccc(N(CCC#N)CCC#N)cc2C)cc1`, the TGI with SF-295 CNS, in the assay on HL-60(TB) leukemia, in the assay on PC-3 prostate, in the assay on RPMI-8226 leukemia, in the assay on OVCAR-3 ovarian and in the assay with TK-10 renal was more than 100 µM throughout. For the same compound, the TGI in the assay with DU-145 prostate and in the assay with HS 578T breast was more than 100 µM each time.

For the origin of these results see PubChem BioAssay (NCI).
